Data on 30 compounds can be found in patent US7875647B2, “Heteroaryl-pyrazole derivatives as cannabinoid CB1 receptor antagonists” (Green Cross Corporation, priority 2006, dated 2011).

By IC50 is commonly meant the point on the concentration scale where inhibition reaches its midpoint.

T1 sequence (P20272 whole entry): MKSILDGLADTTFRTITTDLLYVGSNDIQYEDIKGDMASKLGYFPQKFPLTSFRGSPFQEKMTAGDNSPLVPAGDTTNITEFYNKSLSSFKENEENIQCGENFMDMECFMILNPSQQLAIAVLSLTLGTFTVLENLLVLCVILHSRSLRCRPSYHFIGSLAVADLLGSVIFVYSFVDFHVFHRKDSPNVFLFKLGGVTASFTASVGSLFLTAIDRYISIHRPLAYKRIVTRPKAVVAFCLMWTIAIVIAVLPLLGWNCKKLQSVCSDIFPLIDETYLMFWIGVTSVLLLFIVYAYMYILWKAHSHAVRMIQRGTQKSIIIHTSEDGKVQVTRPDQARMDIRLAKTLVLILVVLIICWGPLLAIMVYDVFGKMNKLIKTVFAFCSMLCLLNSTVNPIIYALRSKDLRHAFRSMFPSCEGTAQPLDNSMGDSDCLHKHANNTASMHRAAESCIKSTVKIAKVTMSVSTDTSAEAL

The first experiment concerns the target T1, Cannabinoid-1 receptor (CB1R) (Rattus norvegicus, UniProt P20272).
T1 construct: The tissue obtained from the brain of SD rats was homogenized; from tissue; host or cells: brain of SD rats (membrane pellet of the homogenate)
Briefly: Cannabinoid-1 receptor (CB1R) binding affinity assay ([3H]CP-55940, rat CB-1 receptor binding protocol). The conditions noted are these: IC50(nM), brain tissue of SD rats, [3H]CP-55940, 30° C. 60 min.
The compound `CCc1c(-c2nnc(C3(c4ccc(Cl)cc4)CCC3)s2)nn(-c2ccc(Cl)cc2Cl)c1-c1ccc(Cl)cc1` [Example 483, 2-(5-(4-chlorophenyl)-1-(2,4-dichlorophenyl)-4-ethyl-1H-pyrazol-3-yl)-5-(1-(4-chlorophenyl)cyclobutyl)-1,3,4-thiadiazole] came in with an IC50 of 2.32 nM.

The experiment is the same for the next values; noted with them: brain tissue of SD rats, [3H]CP-55940, 30° C. 60 min; read-out: IC50.
Turning to `CCc1c(-c2nnc(C(C)(C)OCCCO)o2)nn(-c2ccc(Cl)cc2Cl)c1-c1ccc(Br)cc1` [Example 240, 3-(2-(5-(5-(4-bromophenyl)-1-(2,4-dichlorophenyl)-4-ethyl-1H-pyrazol-3-yl)-1,3,4-oxadiazol-2-yl)propan-2-yloxy)propan-1-ol], the half-maximal inhibitory concentration (IC50) came out at 13.7 nM.

On to `CCc1c(-c2nnc(C(C)(C)c3ccccc3)s2)nn(-c2ccc(Cl)cc2Cl)c1-c1ccc(Br)cc1` [Example 404, 2-(5-(4-bromophenyl)-1-(2,4-dichlorophenyl)-4-ethyl-1H-pyrazol-3-yl)-5-(2-phenylpropan-2-yl)-1,3,4-thiadiazole], for which the IC50 came out at 5.15 nM.

Take `Cc1c(-c2nnc(C3(c4ccc(Cl)cc4)CC3)s2)nn(-c2ccccc2Cl)c1-c1ccc(Cl)cc1` [Example 433, 2-(1-(2-chlorophenyl)-5-(4-chlorophenyl)-4-methyl-1H-pyrazol-3-yl)-5-(1-(4-chlorophenyl)cyclopropyl)-1,3,4-thiadiazole]: the IC50 is 7.53 nM.

Consider `CCc1c(-c2nnc(C3(c4ccccc4)CCCC3)s2)nn(-c2ccc(Cl)cc2Cl)c1-c1ccc(Br)cc1` [Example 485, 2-(5-(4-bromophenyl)-1-(2,4-dichlorophenyl)-4-ethyl-1H-pyrazol-3-yl)-5-(1-phenylcyclopentyl)-1,3,4-thiadiazole], for which the half-inhibitory concentration (IC50) came out at 32.8 nM.

On to `Cc1c(-c2nnc(CC3CCCCC3)s2)nn(-c2ccc(Cl)cc2Cl)c1-c1ccc(Br)cc1` [Example 387, 2-(5-(4-bromophenyl)-1-(2,4-dichlorophenyl)-4-methyl-1H-pyrazol-3-yl)-5-(cyclohexylmethyl)-1,3,4-thiadiazole], for which the IC50 was 24.3 nM.

For the compound `CCc1c(-c2nnc(C3(c4ccccc4)CC3)s2)nn(-c2ccc(Cl)cc2Cl)c1-c1ccc(Br)cc1` [Example 475, 2-(5-(4-bromophenyl)-1-(2,4-dichlorophenyl)-4-ethyl-1H-pyrazol-3-yl)-5-(1-phenylcyclopropyl)-1,3,4-thiadiazole], the IC50 came to 8.75 nM.

Regarding `Cc1c(-c2nnn(Cc3ccsc3)n2)nn(-c2ccc(Cl)cc2Cl)c1-c1ccc(Cl)cc1` [Example 598, 5-(5-(4-Chlorophenyl)-1-(2,4-dichlorophenyl)-4-methyl-1H-pyrazol-3-yl)-2-(thiophen-3-ylmethyl)-2H-tetrazole], the IC50 amounted to 77.6 nM.

Take `CCCc1nc(-c2nn(-c3ccc(Cl)cc3Cl)c(-c3ccc(Cl)cc3)c2C)n[nH]1` [Example 617, 3-(5-(4-chlorophenyl)-1-(2,4-dichlorophenyl)-4-methyl-1H-pyrazol-3-yl)-5-propyl-1H-1,2,4-triazole]: the IC50 worked out at 523 nM.

As for `CCc1c(-c2nnc(C3(c4ccccc4)CC3)o2)nn(-c2ccc(Cl)cc2Cl)c1-c1ccc(Cl)cc1` [Example 150, 2-(5-(4-chlorophenyl)-1-(2,4-dichlorophenyl)-4-ethyl-1H-pyrazol-3-yl)-5-(1-phenylcyclopropyl)-1,3,4-oxadiazole], the IC50 was found to be 6.05 nM.

As for `CCc1c(-c2nnc(C3(c4ccc(Cl)cc4)CCCC3)s2)nn(-c2ccc(Cl)cc2Cl)c1-c1ccc(Br)cc1` [Example 486, 2-(5-(4-bromophenyl)-1-(2,4-dichlorophenyl)-4-ethyl-1H-pyrazol-3-yl)-5-(1-(4-chlorophenyl)cyclopentyl)-1,3,4-thiadiazole], the IC50 was 23 nM.

For `CCCC(C)c1nnc(-c2nn(-c3ccc(Cl)cc3Cl)c(-c3ccc(Br)cc3)c2C)s1` (stereo not drawn) [Example 413, 2-(5-(4-bromophenyl)-1-(2,4-dichlorophenyl)-4-methyl-1H-pyrazol-3-yl)-5-(pentan-2-yl)-1,3,4-thiadiazole], the IC50 was determined as 14.6 nM.

For the compound `CCc1c(-c2nnc(C3(Cc4ccccc4)CC3)s2)nn(-c2ccc(Cl)cc2Cl)c1-c1ccc(Br)cc1` [Example 468, 2-(1-benzylcyclopropyl)-5-(5-(4-bromorophenyl)-1-(2,4-dichlorophenyl)-4-ethyl-1H-pyrazol-3-yl)-1,3,4-thiadiazole], the IC50 was 5.94 nM.

Regarding `CCc1c(-c2nnc(C3(c4ccc(Cl)cc4Cl)CC3)s2)nn(-c2ccc(Cl)cc2Cl)c1-c1ccc(Br)cc1` [Example 478, 2-(5-(4-bromophenyl)-1-(2,4-dichlorophenyl)-4-ethyl-1H-pyrazol-3-yl)-5-(1-(2,4-dichlorophenyl)cyclopropyl)-1,3,4-thiadiazole], the IC50 is 6.49 nM.

Turning to `CCn1nc(-c2nn(-c3ccc(Cl)cc3Cl)c(-c3ccc(Cl)cc3)c2C)nc1C1CC1` [Example 629, 3-(5-(4-chlorophenyl)-1-(2,4-dichlorophenyl)-4-methyl-1H-pyrazol-3-yl)-5-cyclopropyl-1-ethyl-1H-1,2,4-triazole], the IC50 came out at 301 nM.

Regarding `CC(C)(C)c1nnc(-c2nn(-c3ccc(Cl)cc3Cl)c(-c3ccc(Br)cc3)c2Cn2cnnn2)o1` [Example 303, 2-(4-((1H-tetrazol-1-yl)methyl)-5-(4-bromophenyl)-1-(2,4-dichlorophenyl)-1H-pyrazol-3-yl)-5-tert-butyl-1,3,4-oxadiazole], the IC50 was found to be 12 nM.

For the compound “5-(5-(4-Chlorophenyl)-1-(2,4-dichlorophenyl)-4-methyl-1H-pyrazol-3-yl)-1-octyl-1H-tetrazole [Example 604]”, the IC50 was found to be 47.3 nM.

On to `CCC(C)(C)c1nnc(-c2nn(-c3ccc(Cl)cc3Cl)c(-c3ccc(Cl)cc3)c2Cl)s1` [Example 537, 2-(4-chloro-5-(4-chlorophenyl)-1-(2,4-dichlorophenyl)-1H-pyrazol-3-yl)-5-tert-pentyl-1,3,4-thiadiazole], for which the IC50 is 127 nM.

For the compound `Cc1c(-c2nnc(Cc3ccccn3)s2)nn(-c2ccc(Cl)cc2Cl)c1-c1ccc(Cl)cc1` [Example 352, 2-(5-(4-chlorophenyl)-1-(2,4-dichlorophenyl)-4-methyl-1H-pyrazol-3-yl)-5-(pyridin-2-ylmethyl)-1,3,4-thiadiazole], the IC50 stood at 41.2 nM.

As for `Clc1ccc(-c2c(Cn3cncn3)c(-c3nnc(C4(c5ccccc5)CCCC4)s3)nn2-c2ccc(Cl)cc2Cl)cc1` [Example 514, 2-(4-((1H-1,2,4-triazol-1-yl)methyl)-5-(4-chlorophenyl)-1-(2,4-dichlorophenyl)-1H-pyrazol-3-yl)-5-(1-phenylcyclopentyl)-1,3,4-thiadiazole], the IC50 was 2.88 nM.

Take `Cc1c(-c2nc(C3CC3)n(C(C)C)n2)nn(-c2ccc(Cl)cc2Cl)c1-c1ccc(Cl)cc1` [Example 630, 3-(5-(4-chlorophenyl)-1-(2,4-dichlorophenyl)-4-methyl-1H-pyrazol-3-yl)-5-cyclopropyl-1-isopropyl-1H-1,2,4-triazole]: the IC50 worked out at 573 nM.

For `Cc1c(-c2nnc(C(C)(C)OCc3ccccc3)o2)nn(-c2ccc(Cl)cc2Cl)c1-c1ccc(Cl)cc1` [Example 245, 2-(2-(benzyloxy)propan-2-yl)-5-(5-(4-chlorophenyl)-1-(2,4-dichlorophenyl)-4-methyl-1H-pyrazol-3-yl)-1,3,4-oxadiazole], the concentration for half-maximal inhibition (IC50) was found to be 9.41 nM.

For the compound `CCc1c(-c2nnc(C3(CC)CC3)s2)nn(-c2ccc(Cl)cc2Cl)c1-c1ccc(Cl)cc1` [Example 489, 2-(5-(4-chlorophenyl)-1-(2,4-dichlorophenyl)-4-ethyl-1H-pyrazol-3-yl)-5-(1-ethylcyclopropyl)-1,3,4-thiadiazole], the IC50 worked out at 19.8 nM.

`Cc1c(-c2nnc(C3(c4ccccc4)CC3)o2)nn(-c2ccc(Cl)cc2Cl)c1-c1ccc(Cl)cc1` [Example 71, 2-(5-(4-chlorophenyl)-1-(2,4-dichlorophenyl)-4-methyl-1H-pyrazol-3-yl)-5-(1-phenylcyclopropyl)-1,3,4-oxadiazole]: the IC50 is 11 nM.

`Cc1c(-c2nnc(C3(c4ccc(Cl)cc4)CC3)s2)nn(-c2ccc(Cl)cc2)c1-c1ccc(Cl)cc1` [Example 447, 2-(1,5-bis(4-chlorophenyl)-4-methyl-1H-pyrazol-3-yl)-5-(1-(4-chlorophenyl)cyclopropyl)-1,3,4-thiadiazole]: the IC50 was determined as 453 nM.

Take `CCc1c(-c2nnc(C3CC4CCC3C4)s2)nn(-c2ccc(Cl)cc2Cl)c1-c1ccc(Br)cc1` (stereo not drawn) [Example 452, 2-(bicyclo[2.2.1]heptan-2-yl)-5-(5-(4-bromophenyl)-1-(2,4-dichlorophenyl)-4-ethyl-1H-pyrazol-3-yl)-1,3,4-thiadiazole]: the IC50 came out at 54.1 nM.

For the compound `COc1ccc(C2(c3nnc(-c4nn(-c5ccc(Cl)cc5Cl)c(-c5ccc(Cl)cc5)c4Cn4cncn4)o3)CC2)cc1` [Example 319, 2-(4-((1H-1,2,4-triazol-1-yl)methyl)-5-(4-chlorophenyl)-1-(2,4-dichlorophenyl)-1H-pyrazol-3-yl)-5-(1-(4-methoxyphenyl)cyclopropyl)-1,3,4-oxadiazole], the IC50 worked out at 2.89 nM.

`CCc1c(-c2nnc(C3(c4cccc(Cl)c4)CC3)s2)nn(-c2ccc(Cl)cc2Cl)c1-c1ccc(Br)cc1` [Example 495, 2-(5-(4-bromophenyl)-1-(2,4-dichlorophenyl)-4-ethyl-1H-pyrazol-3-yl)-5-(1-(3-chlorophenyl)cyclopropyl)-1,3,4-thiadiazole]: the IC50 came out at 6.23 nM.

Consider `CC(C)(C)c1nnc(-c2nn(-c3ccc(Cl)cc3Cl)c(-c3ccc(Cl)cc3)c2Cn2cnnn2)o1` [Example 301, 2-(4-((1H-tetrazol-1-yl)methyl)-5-(4-chlorophenyl)-1-(2,4-dichlorophenyl)-1H-pyrazol-3-yl)-5-tert-butyl-1,3,4-oxadiazole], for which the IC50 was 7.64 nM.

For the compound `FC(F)(F)C1(c2nnc(-c3nn(-c4ccc(Cl)cc4Cl)c(-c4ccc(Cl)cc4)c3Cn3cncn3)s2)CCC1` [Example 512, 2-(4-((1H-1,2,4-triazol-1-yl)methyl)-5-(4-chlorophenyl)-1-(2,4-dichlorophenyl)-1H-pyrazol-3-yl)-5-(1-(trifluoromethyl)cyclobutyl)-1,3,4-thiadiazole], the IC50 stood at 2.89 nM.
